Source: patent US20240238423A9, “TETRAHYDROISOQUINOLINE HETEROBIFUNCTIONAL BCL-XL DEGRADERS” (Treeline Biosciences, Inc., priority 2022, published 2024)

Molecular target: T1, Human BCL-XL protein (N-terminal HiBiT tagged BCL-XL in HT1080 cells) (Homo sapiens, UniProt Q07817)
T1 construct: expressed in transfected cells; host or cells: HT-1080 (ATCC CCL-121), stably transduced with lentivirus pLV-UBC-N-HiBiT-BCL-XL-PGK-puro and selected with puromycin
Experiment: HiBiT based degradation assay
Format: cell-based
Conditions: HT1080 cells expressing HiBiT-BCL-XL, 24 h; for Ymin (24 h): BCL-XL degradation normalized with DMSO control; for DC50: BCL-XL degradation, read-out: EC50 (24 h)
Description: Human BCL-XL protein coding open reading frame fused with N-terminal HiBiT coding sequence was synthesized from Integrated DNA Technologies (IDT). Next, N-HiBiT-BCL-XL sequence was cloned into pLV-UBC-PGK-Puro, a lentivirus plasmid purchased from Vectorbuilder, to generate pLV-UBC-N-HiBiT-BCL-XL-PGK-puro. Lentiviral particles were generated from Lenti-X™ 293T cells (Clontech) by co-transfection of pLV-UBC-N-HiBiT-BCL-XL-PGK-puro plasmids and lentiviral packaging plasmid mix (Cellecta). HT-1080 [HT1080](ATCC CCL-121) cells were infected with the lentivirus, and HT1080 cells stably integrated with the lentiviral vectors were established by incubation with 1 μg/mL puromycin (Thermofisher).
HT1080 cells expressing N-terminal HiBiT tagged BCL-XL were dispensed into a 384-well plate pre-spotted with compounds at varying concentrations. Three thousand cells were seeded into each well in 40 μL of RPMI 1640 media. […] After incubation, luminescence was read on a PHERAstar FSX Plate Reader (BMG). BCL-XL degradation at each indicated concentration was normalized with the DMSO control. The BCL-XL degradation curves were plotted using a four-parameter logistic model. For compounds displaying hook effects, the curve fitting was performed using the bottom point of the hook curves (i.e., the point of Ymin) as the bottom plateau to calculate EC50.

T1 sequence (Q07817 whole entry): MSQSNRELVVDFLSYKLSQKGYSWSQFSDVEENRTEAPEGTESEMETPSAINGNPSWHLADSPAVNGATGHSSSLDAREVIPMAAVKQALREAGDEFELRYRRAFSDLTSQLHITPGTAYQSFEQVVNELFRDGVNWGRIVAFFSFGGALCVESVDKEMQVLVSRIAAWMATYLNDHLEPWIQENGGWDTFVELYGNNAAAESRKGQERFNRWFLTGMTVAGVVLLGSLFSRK

| Compound | Ymin (24 h) | DC50 |
| --- | --- | --- |
| Cc1c(O[C@H]2CC[C@H](CC[C@H](C)CN3CCN(c4ccc5c(C6CCC(=O)NC6=O)nn(C)c5c4)CC3)CC2)cccc1-c1ccc(N2CCc3cccc(C(=O)Nc4nc5ccccc5s4)c3C2)nc1C(=O)O (single isomer, unassigned) [Compound 308b] | A (Ymin < 50%) | < 100 nM |
| Cc1c(O[C@H]2CC[C@H]([C@H](C)CCN3CCN(c4ccc5c(C6CCC(=O)NC6=O)nn(C)c5c4)CC3)CC2)cccc1-c1ccc(N2CCc3cccc(C(=O)Nc4nc5ccccc5s4)c3C2)nc1C(=O)O (single isomer, unassigned) [Compound 310a] | A (Ymin < 50%) | < 100 nM |
| Cc1c(O[C@H]2CC[C@H]([C@@H](C)CCN3CCN(c4ccc5c(C6CCC(=O)NC6=O)nn(C)c5c4)CC3)CC2)cccc1-c1ccc(N2CCc3cccc(C(=O)Nc4nc5ccccc5s4)c3C2)nc1C(=O)O (single isomer, unassigned) [Compound 310b] | A (Ymin < 50%) | < 100 nM |
| Cc1c(O[C@H]2CC[C@H](CCCN3CC[C@H](c4ccc5c(C6CCC(=O)NC6=O)nn(C)c5c4)C3)CC2)cccc1-c1ccc(N2CCc3cccc(C(=O)Nc4nc5ccccc5s4)c3C2)nc1C(=O)O (single isomer, unassigned) [Compound 331a] | A (Ymin < 50%) | < 100 nM |
| Cc1c(O[C@H]2CC[C@H](CCCCN3CC[C@H](c4ccc5c(C6CCC(=O)NC6=O)nn(C)c5c4)C3)CC2)cccc1-c1ccc(N2CCc3cccc(C(=O)Nc4nc5ccccc5s4)c3C2)nc1C(=O)O (single isomer, unassigned) [Compound 332a] | A (Ymin < 50%) | < 100 nM |
| Cc1c(O[C@H]2CC[C@H](CCCCN3CC[C@@H](c4ccc5c(C6CCC(=O)NC6=O)nn(C)c5c4)C3)CC2)cccc1-c1ccc(N2CCc3cccc(C(=O)Nc4nc5ccccc5s4)c3C2)nc1C(=O)O (single isomer, unassigned) [Compound 332b] | A (Ymin < 50%) | < 100 nM |
| Cc1c(O[C@H]2CC[C@H](CCC[C@H](C)N3CCN(c4ccc5c(C6CCC(=O)NC6=O)nn(C)c5c4)CC3)CC2)cccc1-c1ccc(N2CCc3cccc(C(=O)Nc4nc5ccccc5s4)c3C2)nc1C(=O)O (single isomer, unassigned) [Compound 333a] | A (Ymin < 50%) | < 100 nM |
| Cc1c(O[C@H]2CC[C@H](CCC[C@@H](C)N3CCN(c4ccc5c(C6CCC(=O)NC6=O)nn(C)c5c4)CC3)CC2)cccc1-c1ccc(N2CCc3cccc(C(=O)Nc4nc5ccccc5s4)c3C2)nc1C(=O)O (single isomer, unassigned) [Compound 333b] | A (Ymin < 50%) | < 100 nM |
| Cc1c(O[C@H]2CC[C@H](CCCC(C)N3CCN(c4cccc5c(C6CCC(=O)NC6=O)nn(C)c45)CC3)CC2)cccc1-c1ccc(N2CCc3cccc(C(=O)Nc4nc5ccccc5s4)c3C2)nc1C(=O)O (single isomer, unassigned) [Compound 349a] | A (Ymin < 50%) | < 100 nM |
| Cc1c(O[C@H]2CC[C@H](CCC[C@@H](C)N3CCN(c4cccc5c(C6CCC(=O)NC6=O)nn(C)c45)CC3)CC2)cccc1-c1ccc(N2CCc3cccc(C(=O)Nc4nc5ccccc5s4)c3C2)nc1C(=O)O (single isomer, unassigned) [Compound 349b] | A (Ymin < 50%) | < 100 nM |
| Cc1c(O[C@H]2CC[C@H](CCCCN3CCC[C@H](c4ccc5c(C6CCC(=O)NC6=O)nn(C)c5c4)C3)CC2)cccc1-c1ccc(N2CCc3cccc(C(=O)Nc4nc5ccccc5s4)c3C2)nc1C(=O)O (single isomer, unassigned) [Compound 352a] | A (Ymin < 50%) | < 100 nM |
| Cc1c(O[C@H]2CC[C@H](CCCCN3CCC[C@@H](c4ccc5c(C6CCC(=O)NC6=O)nn(C)c5c4)C3)CC2)cccc1-c1ccc(N2CCc3cccc(C(=O)Nc4nc5ccccc5s4)c3C2)nc1C(=O)O (single isomer, unassigned) [Compound 352b] | A (Ymin < 50%) | < 100 nM |
| Cc1cc(OC[C@@H](C)CC2CCN(CC(=O)Nc3ccc4c(C5CCC(=O)NC5=O)nn(C)c4c3)CC2)ccc1-c1ccc(N2CCc3cccc(C(=O)Nc4nc5ccccc5s4)c3C2)nc1C(=O)O (stereo in doubt) [Compound 271b, 6-(8-(benzo[d]thiazol-2-ylcarbamoyl)-3,4-dihydroisoquinolin-2(1H)-yl)-3-(4-((2S)-3-(1-(2-((3-(2,6-dioxopiperidin-3-yl)-1-methyl-1H-indazol-6-yl)amino)-2-oxoethyl)piperidin-4-yl)-2-methylpropoxy)-2-methylphenyl)picolinic acid] | C (Ymin ≥ 70%) | < 100 nM |

Next, values leading:

| Ymin (24 h) | DC50 | Compound |
| --- | --- | --- |
| A (Ymin < 50%) | < 100 nM | Cc1c(O[C@H]2CC[C@H](CCCN3CCC(c4cccc5c(C6CCC(=O)NC6=O)nn(C)c45)C3)CC2)cccc1-c1ccc(N2CCc3cccc(C(=O)Nc4nc5ccccc5s4)c3C2)nc1C(=O)O (single isomer, unassigned) [Compound 320a] |
| A (Ymin < 50%) | < 100 nM | Cc1c(O[C@H]2CC[C@H](CCCN3CC[C@@H](c4cccc5c(C6CCC(=O)NC6=O)nn(C)c45)C3)CC2)cccc1-c1ccc(N2CCc3cccc(C(=O)Nc4nc5ccccc5s4)c3C2)nc1C(=O)O (single isomer, unassigned) [Compound 320b] |
| A (Ymin < 50%) | < 100 nM | Cc1c(O[C@H]2CC[C@H](CCCCN3CC[C@H](c4cccc5c(C6CCC(=O)NC6=O)nn(C)c45)C3)CC2)cccc1-c1ccc(N2CCc3cccc(C(=O)Nc4nc5ccccc5s4)c3C2)nc1C(=O)O (single isomer, unassigned) [Compound 321a] |
| A (Ymin < 50%) | < 100 nM | Cc1c(O[C@H]2CC[C@H](CCCCN3CC[C@@H](c4cccc5c(C6CCC(=O)NC6=O)nn(C)c45)C3)CC2)cccc1-c1ccc(N2CCc3cccc(C(=O)Nc4nc5ccccc5s4)c3C2)nc1C(=O)O (single isomer, unassigned) [Compound 321b] |
| A (Ymin < 50%) | < 100 nM | Cc1c(O[C@H]2CC[C@H](CCCN3CC[C@@H](c4ccc5c(C6CCC(=O)NC6=O)nn(C)c5c4)C3)CC2)cccc1-c1ccc(N2CCc3cccc(C(=O)Nc4nc5ccccc5s4)c3C2)nc1C(=O)O (single isomer, unassigned) [Compound 331b] |
| A (Ymin < 50%) | < 100 nM | Cc1c(O[C@H]2CC[C@H](CCCCN3CCC[C@H](c4cccc5c(C6CCC(=O)NC6=O)nn(C)c45)C3)CC2)cccc1-c1ccc(N2CCc3cccc(C(=O)Nc4nc5ccccc5s4)c3C2)nc1C(=O)O (single isomer, unassigned) [Compound 351a] |
| A (Ymin < 50%) | < 100 nM | Cc1c(O[C@H]2CC[C@H](CCCCN3CCC[C@@H](c4cccc5c(C6CCC(=O)NC6=O)nn(C)c45)C3)CC2)cccc1-c1ccc(N2CCc3cccc(C(=O)Nc4nc5ccccc5s4)c3C2)nc1C(=O)O (single isomer, unassigned) [Compound 351b] |
